This note sets out measurements from patent US20260258032A1, “TYROSINE KINASE 2 INHIBITORS AND USES THEREOF” (BIOGEN MA INC., priority 2022, published 2026).

Structures can show the parent of a compound that is named as a salt.

For this assay, the system named is Tyk2 kinase activity on STAT4. Put plainly: pSTAT4 cell assay (MSD, NK92 cells). It counts as cell-based. To be noted: compounds 1 hr, stimulated 15 minutes. Here is the method: The inhibitory potency of compounds of the disclosure against the Tyk2 kinase activity on STAT4 was evaluated using an MSD-platform plate-based assay format. NK92 cells natively expressing STAT4 and Tyk2 were serum-starved to reduce background phosphorylation levels, then cells were treated compounds for 1 hr with a 10-point four-fold dilution series starting at 10 μM. Cells were then stimulated with 30 ng/mL IL2 for 15 minutes. Cells were lysed and […] levels were quantitated using an MSD plate-based assay with anti-STAT4 antibodies. The data were normalized and the percent activity versus log concentration of compound were fitted with a 4-parameter logistic model to generate to generate IC50 curves.
Consider `CC(=O)Nc1cc2c(cn1)C1(CC1)CN2c1cc(C)nc(-n2nc(C)cc2C)n1` [Example 110, N-(1′-(2-(3,5-dimethyl-1H-pyrazol-1-yl)-6-methylpyrimidin-4-yl)-1′,2′-dihydrospiro[cyclopropane-1,3′-pyrrolo[3,2-c]pyridin]-6′-yl)acetamide], for which the concentration for half-maximal inhibition (IC50) (as a rule, the point on the concentration scale where inhibition reaches its midpoint) was ≥ 1000 nM. Next, `CC(=O)Nc1cc2c(cn1)C1(CC1)CN2c1cc(OCC2(C)COC2)nc(C(C)(F)F)n1` [Example 139, N-(1′-(2-(1,1-difluoroethyl)-6-((3-methyloxetan-3-yl)methoxy)pyrimidin-4-yl)-1′,2′-dihydrospiro[cyclopropane-1,3′-pyrrolo[3,2-c]pyridin]-6′-yl)acetamide trifluoroacetate]: ≥ 1000 nM.

As for `CC(=O)Nc1cc2c(cn1)C1(CC1)CN2c1cc(NC23CC(C2)C3)nc(C(C)(F)F)n1` [Example 159, N-(1′-(6-(bicyclo[1.1.1]pentan-1-ylamino)-2-(1,1-difluoroethyl)pyrimidin-4-yl)-1′,2′-dihydrospiro[cyclopropane-1,3′-pyrrolo[3,2-c]pyridin]-6′-yl)acetamide trifluoroacetate], the 50% inhibitory concentration (IC50) lay in the range of 10 to 100 nM.

In the case of `CC(=O)Nc1cc2c(cn1)C1(CC1)CN2c1cc(C)nc(-c2cnn(C3CCC3)c2)n1` [Example 246, N-(1′-(2-(1-cyclobutyl-1H-pyrazol-4-yl)-6-methylpyrimidin-4-yl)-1′,2′-dihydrospiro[cyclopropane-1,3′-pyrrolo[3,2-c]pyridin]-6′-yl)acetamide], the 50% inhibitory concentration (IC50) was ≥ 1000 nM. Next, `CC(=O)Nc1cc2c(cn1)C1(CC1)CN2c1cc(Oc2ccnnc2)nc(C(C)(F)F)n1` [Example 147, N-(1′-(2-(1,1-difluoroethyl)-6-(pyridazin-4-yloxy)pyrimidin-4-yl)-1′,2′-dihydrospiro[cyclopropane-1,3′-pyrrolo[3,2-c]pyridin]-6′-yl)acetamide trifluoroacetate]: ≥ 1000 nM; `CC(=O)Nc1cc2c(cn1)C1(CC1)CN2c1cc(C)nc(N2CCC(N(C)C)C2)n1` (centres unmarked) [Example 215, N-(1′-(2-(3-(dimethylamino)pyrrolidin-1-yl)-6-methylpyrimidin-4-yl)-1′,2′-dihydrospiro[cyclopropane-1,3′-pyrrolo[3,2-c]pyridin]-6′-yl)acetamide]: ≥ 1000 nM. `CC(=O)Nc1cc2c(cn1)C1(CC1)CN2c1cc(C)nc(C2CC2(C)C)n1` (centres unmarked) [Example 124, N-(1′-(2-(2,2-dimethylcyclopropyl)-6-methylpyrimidin-4-yl)-1′,2′-dihydrospiro[cyclopropane-1,3′-pyrrolo[3,2-c]pyridin]-6′-yl)acetamide] showed a half-maximal inhibitory concentration (IC50) of 10 to 100 nM. As to `CC(=O)Nc1cc2c(cn1)C1(CC1)CN2c1cc(CCCO)nc(C(C)(F)F)n1` [Example 295, N-(1′-(2-(1,1-difluoroethyl)-6-(3-hydroxypropyl)pyrimidin-4-yl)-1′,2′-dihydrospiro[cyclopropane-1,3′-pyrrolo[3,2-c]pyridin]-6′-yl)acetamide], the concentration for half-maximal inhibition (IC50) was in the range of 10 to 100 nM.

The compound `CC(=O)Nc1cc2c(cn1)C1(CC1)CN2c1cc(C)nc(OC(C)C)n1` [Example 362, N-(1′-(2-isopropoxy-6-methylpyrimidin-4-yl)-1′,2′-dihydrospiro[cyclopropane-1,3′-pyrrolo[3,2-c]pyridin]-6′-yl)acetamide trifluoroacetate] returned an IC50 of 100 to 1000 nM. Next, `CC(=O)Nc1cc2c(cn1)C1(CC1)CN2c1cc(C)nc(N(C)C(C)C)n1` [Example 115, N-(1′-(2-(isopropyl(methyl)amino)-6-methylpyrimidin-4-yl)-1′,2′-dihydrospiro[cyclopropane-1,3′-pyrrolo[3,2-c]pyridin]-6′-yl)acetamide]: ≥ 1000 nM. As for `CC(=O)Nc1cc2c(cn1)C1(CC1)CN2c1cc(Oc2cnccn2)nc(C(C)(F)F)n1` [Example 146, N-(1′-(2-(1,1-difluoroethyl)-6-(pyrazin-2-yloxy)pyrimidin-4-yl)-1′,2′-dihydrospiro[cyclopropane-1,3′-pyrrolo[3,2-c]pyridin]-6′-yl)acetamide], the IC50 was ≥ 1000 nM.
